Measured values taken from US5591741A, “Fungicidal spiroheterocyclic derivatives” (American Cyanamid Company, priority 1993, dated 1997).

Key:
Phytophthora infestans = format: in vivo; details: tomato, direct protectant foliar spray
Leptosphaeria nodorum = experiment: Activity against wheat leafspot (LN); format: in vivo; details: direct therapeutic foliar spray, 600 ppm, 6-8 days
Summary of the method: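 Wheat cv Norman at single-leaf stage spray-inoculated with 1.5×10^6 conidia/ml, held 24 h at high humidity, then sprayed therapeutically with test compound at 600 ppm. Kept 6-8 days at 22° C, 70% humidity; lesion density per leaf rated against untreated or diluent-sprayed controls.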

Plasmopara viticola = experiment: Antisporulant activity against vine downy mildew (PVA); format: in vivo; details: vine leaves, antisporulant foliar spray, 600 ppm, 750 l/ha
Summary of the method: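 Cabernet Sauvignon vines (~8 cm) inoculated on lower leaf surfaces with 5×10^4 zoosporangia/ml, held 24 h at 21° C high humidity then 24 h glasshouse. Infected leaves sprayed underside with 600 ppm compound in 1:1 water/acetone, 0.04% Tween 20, 750 l/ha; 96 h glasshouse, 24 h humidity. Sporulating leaf area rated versus control.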

[1] = tested on: Erysiphe graminis f.sp. hordei; experiment: Direct protectant activity against barley powdery mildew (EGP); format: in vivo; details: direct protectant foliar spray, 8 days
Summary of the method: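 Barley seedlings (cv Golden Promise, single-leaf stage) were foliar-sprayed, held 24 h at 18 °C/40% RH, then dusted with mildew conidia. After 8 days at 18 °C/40% RH, sporulating leaf area was scored as a rating against untreated or diluent-sprayed controls.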

[2] = tested on: Erysiphe graminis f.sp. hordei; experiment: Activity against barley powdery mildew, direct therapeutic (EGT); format: in vivo; details: direct therapeutic foliar spray, 600 ppm, up to 7 days
Summary of the method: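 Barley seedlings (cv. Golden Promise, single-leaf stage) were dusted with mildew conidia one day before a therapeutic foliar spray of 600 ppm compound. Plants were kept at 18 °C and 40% humidity for up to 7 days, and sporulating leaf area was rated against untreated or diluent-sprayed controls.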

[3] = tested on: Pseudocercosporella herpotrichoides; experiment: Activity against wheat eyespot in-vitro (PHI); format: cell-based; details: 10 ppm, 10 days, 20° C., mycelial growth
Summary of the method: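 P. herpotrichoides mycelial fragments (5×10^4/ml) grown in half-strength PDB with compound at 10 ppm final, added from acetone. Incubated 10 days at 20 °C; mycelial growth rated against untreated or diluent controls.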

Venturia inaequalis = experiment: Activity against apple scab in-vitro (VII); format: cell-based; details: 10 ppm, 10 days, 20° C., mycelial growth
Summary of the method: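 Compound in acetone was tested at 10 ppm final in half-strength Potato Dextrose Broth inoculated with V. inaequalis mycelial fragments and spores at 5×10^4 propagules/ml. After 10 days at 20° C, mycelial growth was rated against untreated or diluent controls.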

Botrytis cinerea = experiment: Direct protectant activity against broad bean grey mould (BCB); format: in vivo; details: direct protectant foliar spray, 600 ppm, 4 days
Summary of the method: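 Broad bean plants (cv The Sutton, two leaf pairs) sprayed on upper leaf surfaces at 600 ppm, then inoculated 24 h later with 10^6 conidia/ml. Kept 4 days at 22 °C, high humidity; disease control rated from % leaf area with lesions against untreated or diluent controls.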

Rhizoctonia solani = experiment: Activity against Rhizoctonia in-vitro (RSI); format: cell-based; details: 10 ppm, 10 days, 20° C., mycelial growth
Summary of the method: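 R. solani mycelial fragments (5×10^4/ml) in half-strength Potato Dextrose Broth with compound added from acetone to 10 ppm final. Mycelial growth assessed after 10 days at 20° C, rated against untreated or diluent control.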

Alternaria solani = experiment: Activity against tomato early blight (AS); format: in vivo; details: Table VI; tomato seedlings, contact prophylactic foliar spray, 4 days
Summary of the method: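 Foliar contact prophylactic spray on tomato seedlings (cv Outdoor Girl, second true leaf expanded) in acetone/water 50:50 with 0.04% Tween 20; 24 h at 20° C, 40% R.H., then inoculation with 10^4 spores/ml A. solani conidia. Kept moist at 21° C; lesion cover rated 4 days post-inoculation against untreated or diluent-sprayed controls.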

Pyricularia oryzae = format: in vivo; details: rice seedlings, direct therapeutic foliar spray, 600 ppm, 4-5 days

| Structure (SMILES) | disease control rating PIP (Phytophthora infestans) | disease control rating LN (Leptosphaeria nodorum) | disease control rating PVA (Plasmopara viticola) | disease control rating EGP [1] | disease control rating EGT [2] | disease control rating PHI [3] | disease control rating VII (Venturia inaequalis) | disease control rating BCB (Botrytis cinerea) | disease control rating RSI (Rhizoctonia solani) | disease control rating AS (Alternaria solani) | disease control rating PO (Pyricularia oryzae) |
| --- | --- | --- | --- | --- | --- | --- | --- | --- | --- | --- | --- |
| CCCCCN(C(C)C)C1COC2(CCC(C(C)(C)C)CC2)C1 (centres unmarked) [Compound 76] | 0 (less than 50% disease control) | 0 (less than 50% disease control) | 0 (less than 50% disease control) | 2 (greater than 80% disease control) | 2 (greater than 80% disease control) | 0 (less than 50% disease control) | 0 (less than 50% disease control) | 0 (less than 50% disease control) | 0 (less than 50% disease control) | 0 (less than 50% disease control) | 0 (less than 50% disease control) |
| CCCCCN(C1CCCCC1)C1COC2(CCC(C(C)(C)C)CC2)C1 (centres unmarked) [Compound 77] | 0 (less than 50% disease control) | 0 (less than 50% disease control) | 0 (less than 50% disease control) | 2 (greater than 80% disease control) | 2 (greater than 80% disease control) | 0 (less than 50% disease control) | 0 (less than 50% disease control) | 0 (less than 50% disease control) | 0 (less than 50% disease control) | 0 (less than 50% disease control) | 0 (less than 50% disease control) |
| CCCCCN(C)C1COC2(CCC(C(C)(C)C)CC2)C1 (centres unmarked) [Compound 78] | 0 (less than 50% disease control) | 0 (less than 50% disease control) | 0 (less than 50% disease control) | 2 (greater than 80% disease control) | 2 (greater than 80% disease control) | 0 (less than 50% disease control) | 0 (less than 50% disease control) | 1 (about 50-80% disease control) | 0 (less than 50% disease control) | 0 (less than 50% disease control) | 0 (less than 50% disease control) |
| C=CCN(C1CCCCC1)C1COC2(CCC(C(C)(C)C)CC2)C1 (centres unmarked) [Compound 79] | 2 (greater than 80% disease control) | 0 (less than 50% disease control) | 0 (less than 50% disease control) | 2 (greater than 80% disease control) | 2 (greater than 80% disease control) | 0 (less than 50% disease control) | 0 (less than 50% disease control) | 1 (about 50-80% disease control) | 0 (less than 50% disease control) | 0 (less than 50% disease control) | 0 (less than 50% disease control) |
| CN(C1CCCCC1)C1COC2(CCC(C(C)(C)C)CC2)C1 (centres unmarked) [Compound 80] | 2 (greater than 80% disease control) | 1 (about 50-80% disease control) | 0 (less than 50% disease control) | 2 (greater than 80% disease control) | 2 (greater than 80% disease control) | 0 (less than 50% disease control) | 0 (less than 50% disease control) | 1 (about 50-80% disease control) | 1 (about 50-80% disease control) | 0 (less than 50% disease control) | 1 (about 50-80% disease control) |
| CC(C)(C)NC1COC2(CCC(C(C)(C)C)CC2)C1 (centres unmarked) [Compound 81] | 2 (greater than 80% disease control) | 0 (less than 50% disease control) | 0 (less than 50% disease control) | 2 (greater than 80% disease control) | 2 (greater than 80% disease control) | 0 (less than 50% disease control) | 0 (less than 50% disease control) | 2 (greater than 80% disease control) | 0 (less than 50% disease control) | 0 (less than 50% disease control) | 0 (less than 50% disease control) |
| CC(C)(C)C1CCC2(CC1)CC(NCC1CCCCC1)CO2 (centres unmarked) [Compound 82] | 0 (less than 50% disease control) | 1 (about 50-80% disease control) | 0 (less than 50% disease control) | 2 (greater than 80% disease control) | 2 (greater than 80% disease control) | 0 (less than 50% disease control) | 0 (less than 50% disease control) | 2 (greater than 80% disease control) | 0 (less than 50% disease control) | 0 (less than 50% disease control) | 0 (less than 50% disease control) |
| CCC(CC)NC1COC2(CCC(C(C)(C)C)CC2)C1 (centres unmarked) [Compound 83] | 0 (less than 50% disease control) | 0 (less than 50% disease control) | 0 (less than 50% disease control) | 2 (greater than 80% disease control) | 2 (greater than 80% disease control) | 0 (less than 50% disease control) | 0 (less than 50% disease control) | 1 (about 50-80% disease control) | 0 (less than 50% disease control) | 0 (less than 50% disease control) | 0 (less than 50% disease control) |
| CCCCCCNC1CC2(CCC(C(C)(C)C)CC2)OC1C (centres unmarked) [Compound 84] | 2 (greater than 80% disease control) | 0 (less than 50% disease control) | 0 (less than 50% disease control) | 2 (greater than 80% disease control) | 2 (greater than 80% disease control) | 0 (less than 50% disease control) | 1 (about 50-80% disease control) | 0 (less than 50% disease control) | 1 (about 50-80% disease control) | 0 (less than 50% disease control) | 0 (less than 50% disease control) |
| CC(C)(C)C1CCC2(CC1)CC(NC1CC3CCC1C3)CO2 (centres unmarked) [Compound 85] | 2 (greater than 80% disease control) | 0 (less than 50% disease control) | 0 (less than 50% disease control) | 2 (greater than 80% disease control) | 2 (greater than 80% disease control) | 0 (less than 50% disease control) | 1 (about 50-80% disease control) | 2 (greater than 80% disease control) | 0 (less than 50% disease control) | 0 (less than 50% disease control) | 0 (less than 50% disease control) |
